Data published in US9682126B2, “Postprandial gastrokinetic agent” (ZERIA PHARMACEUTICAL CO., LTD., priority 2013, dated 2017).

Key:
[1] = system: Suncus murinus; test: Postprandial motility by co-administration of ghrelin and motilin, ΔMI (Example 3); format: in vivo
Description: Each of Suncus motilin (Scrum Inc., Tokyo, Japan) and human ghrelin (Asubio Pharma Co., Ltd., Hyogo, Japan) was dissolved in PBS containing 0.1% bovine serum albumin.
Suncus murinus (male, outbred KAT strain, 7 to 39 weeks old, 56 to 91 g) was used for the experiment. The Each animal was bred in a plastic cage provided with an empty can as a nest box under the following conditions: temperature at 23±2° C., illumination between 8:00 and 20:00, and free intake of commercial trout feed (SP, Nippon Formula Feed Mfg Co., Ltd., Yokohama, Japan).
After 3 hours of fasting, Suncus murinus was anesthetized by an intraperitoneal injection of pentobarbital sodium (50 mg/kg). Through a midline incision, the stomach was exposed outside the body, and a force transducer was fixed via suture in the circular muscle direction of the body of stomach. The wire extending from the force transducer was inserted through the abdominal wall, passed under the skin, and exposed at the back of the neck.
An intravenous catheter was inserted in the right jugular, and extracorporeally fixed to the back. The catheter was filled with heparinized saline (100 units/mL) to prevent clotting.
Each of the operated Suncus murinus was allowed to recover for several days.
Drug administration and measurement of gastric motility were performed in the conscious, free-moving state without anesthesia.
2 g of feed was given to each Suncus murinus fastened (for 8 to 10 hours) for 10 minutes. After the intake of feed for 10 minutes, ghrelin (50, 1,000, or 3,000 ng/kg), motilin (300, 500, 1,000, or 3,000 ng/kg), or a mixed solution of ghrelin (15 or 50 ng/kg) and motilin (100, 200, or 300 ng/kg) was intravenously administered through a jugular vein catheter rapidly.
Amplified analog signals were converted into digital signals by an analog-to-digital converter (ADC-20, Pico Technology Ltd, St Neots, UK), and the digital signals were recorded on a computer.
Phase III contractions of MMC in conscious Suncus murinus were defined on the basis of those in dogs and humans (that is, clustered contractions with an amplitude of 8 g or more that lasts for 5 minutes or more).
Gastric motility was quantitated using a motility index (ΔMI). A motility index (ΔMI) based on a drug was calculated using the following equation. ΔMI (%)=(A−C)/B×100 A: AUC of contractions for 10 minutes during which the drug was administered B: AUC of 10-minute spontaneous phase III contractions appeared before administration of the drug C: (AUC of contractions appeared for 5 minutes between 5 and 10 minutes after the intake of feed)×2 (2) Results (FIG. 9) A. Action of Ghrelin Alone

[2] = system: subjects; conditions: motilin continuously administered intravenously to fasting subjects; cited from earlier work
[3] = system: Suncus murinus; test: Gastric motility in interdigestive period, sham-operated vs vagotomized (Example 2); format: in vivo; conditions: motilin 50 ng/kg/min iv over 10 minutes
Description: Each of Suncus motilin (Scrum Inc., Tokyo, Japan) and human ghrelin (Asubio Pharma Co., Ltd., Hyogo, Japan) were dissolved in PBS containing 0.1% bovine serum albumin. Suncus murinus (male, outbred KAT strain, 7 to 15 weeks old, 60 to 100 g) was used for the experiment. Each animal was bred in a plastic cage provided with an empty can as a nest box under the following conditions: temperature at 23±2° C., illumination between 8:00 and 20:00, and free intake of commercial trout feed (SP, Nippon Formula Feed Mfg Co., Ltd., Yokohama, Japan). After 3 hours of fasting, Suncus murinus was anesthetized by an intraperitoneal injection of pentobarbital sodium (50 mg/kg). Through a midline incision, the stomach was exposed outside the body, and a force transducer was fixed via suture in the circular muscle direction of the body of stomach. The wire extending from the force transducer was inserted through the abdominal wall, passed under the skin, and exposed at the back of the neck. Thereafter, truncal vagotomy was performed. A lower portion of the esophagus was exposed, both branches of the vagus nerve were isolated, and about 3 mm of the vagus nerve was excised above the hepatic branch and the celiac branch. For sham-operated Suncus murinus, the vagus nerve was exposed, but not excised. An intravenous catheter was inserted in the right jugular, and extracorporeally fixed to the back. The catheter was filled with heparinized saline (100 units/mL) to prevent clotting. From 2 days after the operation, the gastric motility was recorded. Administration of motilin was initiated 10 minutes after completion of spontaneous phase III. Synthesized suncus motilin was continuously injected at 50 ng/kg/min over 10 minutes, and the continuously injected amount was 50 μL/100 g BW/min. Administration of ghrelin was initiated 10 minutes after completion of spontaneous phase II. […] Amplified analog signals were converted into digital signals by an analog-to-digital converter (ADC-20, Pico Technology Ltd, St Neots, UK), and the digital signals were recorded on a computer. Phase III contractions of MMC in conscious Suncus murinus were defined on the basis of those in dogs and humans (that is, clustered contractions with an amplitude of 8 g or more that lasts for 5 minutes or more). Gastric motility was quantitated using a motility index (MI). A motility index (MI) based on a drug was calculated using the following equation. MI (%)=A/B×100 A: AUC of contractions for 10 minutes during which the drug was administered B: […] Statistical analysis After ANOVA, Student's t test was performed.

[4] = motilin 300 ng/kg iv after feed intake
[5] = motilin 500 ng/kg iv after feed intake
[6] = motilin 1,000 ng/kg iv after feed intake
[7] = motilin 3,000 ng/kg iv after feed intake

In the case of CC[C@H](C)[C@H](NC(=O)[C@@H]1CCCN1C(=O)[C@@H](NC(=O)[C@@H](N)Cc1ccccc1)C(C)C)C(=O)N[C@@H](Cc1ccccc1)C(=O)N[C@H](C(=O)N[C@@H](Cc1ccc(O)cc1)C(=O)NCC(=O)N[C@@H](CCC(=O)O)C(=O)N[C@@H](CC(C)C)C(=O)N[C@@H](CCC(N)=O)C(=O)N[C@@H](CCCNC(=N)N)C(=O)N[C@@H](CCSC)C(=O)N[C@@H](CCC(N)=O)C(=O)N[C@@H](CCC(=O)O)C(=O)N[C@@H](CCCCN)C(=O)N[C@@H](CCC(=O)O)C(=O)N[C@@H](CCCNC(=N)N)C(=O)N[C@@H](CC(N)=O)C(=O)N[C@@H](CCCCN)C(=O)NCC(=O)N[C@@H](CCC(N)=O)C(=O)O)[C@@H](C)O [motilin], the “Motility Index (ΔMI)” value [1, 4] is reported as “About 4.9%”, the “contractions of the body of the stomach” value [1, 4] is reported as “did not induce contractions of the body of the stomach” and the “Motility Index (ΔMI)” value [1, 5] is reported as “About 6.8%”. For the same compound, the “contractions of the body of the stomach” value [1, 5] was “did not induce contractions of the body of the stomach”, the “Motility Index (ΔMI)” value [1, 6] was “About 49.5%” and the “phase III-like contractions” value [1, 6] was “induced phase III-like contractions”. The “Motility Index (ΔMI)” value [1, 7] was “about 48.3%”, the “phase III-like contractions” value [1, 7] was “induced phase III-like contractions” and the gastric emptying [2] was “accelerate gastric emptying”. For the same compound, the “motilin-induced phase III-like contractions” value ([3]; both sham-operated and vagotomized, 10 minutes after spontaneous phase III) was “phase III-like contractions were observed”, the “contraction duration due to motilin, sham-operated vs vagotomized” value ([3]; phase I) was “a significant difference was not observed” and the “motility index (MI) during administration of motilin, sham-operated vs vagotomized” value ([3]; phase I) was “a significant difference was not observed”.
